Reference: patent EP0726263A2, “Herbicidal (1,3,4)oxadiazoles and thiadiazoles” (American Cyanamid Company, priority 1995, dated 1996)

Columns and labels:
Assay type in all cases: in vivo
Ipomoea hederacea [1] = test: Herbicidal activity, postemergence test; details: post; sprayed onto seedling plants, 800 g of active material per hectare; evaluated 2 weeks after treatment
Outline: (§1)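 First, test compound in acetone containing 0.4% Triton X-155 is diluted with water. Next, it is sprayed at 800 g/ha (900 L/ha) onto freshly seeded loam (pre) or onto seedlings (post). Finally, plants are scored 0-9 visually after 3 or 2 weeks, respectively.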

Abutilon theophrasti [2] = test: Herbicidal activity, postemergence test; details: post; sprayed onto seedling plants, 800 g of active material per hectare; evaluated 2 weeks after treatment
Outline: as §1

Echinochloa crus-galli [3] = test: Herbicidal activity, postemergence test; details: post; sprayed onto seedling plants, 800 g of active material per hectare; evaluated 2 weeks after treatment
Outline: as §1

Veronica persica [4] = test: Herbicidal activity, postemergence test; details: post; sprayed onto seedling plants, 800 g of active material per hectare; evaluated 2 weeks after treatment
Outline: as §1

Glycine max [5] = test: Herbicidal activity, postemergence test; details: post; sprayed onto seedling plants, 800 g of active material per hectare; evaluated 2 weeks after treatment
Outline: as §1

Amaranthus retroflexus [6] = test: Herbicidal activity, postemergence test; details: post; sprayed onto seedling plants, 800 g of active material per hectare; evaluated 2 weeks after treatment
Outline: as §1

Triticum aestivum [7] = test: Herbicidal activity, postemergence test; details: post; sprayed onto seedling plants, 800 g of active material per hectare; evaluated 2 weeks after treatment
Outline: as §1

Lamium purpureum [8] = test: Herbicidal activity, postemergence test; details: post; sprayed onto seedling plants, 800 g of active material per hectare; evaluated 2 weeks after treatment
Outline: as §1

Alopecurus myosuroides [9] = test: Herbicidal activity, postemergence test; details: post; sprayed onto seedling plants, 800 g of active material per hectare; evaluated 2 weeks after treatment
Outline: as §1

Gossypium hirsutum [10] = test: Herbicidal activity, postemergence test; details: post; sprayed onto seedling plants, 800 g of active material per hectare; evaluated 2 weeks after treatment
Outline: as §1

Galium aparine [11] = test: Herbicidal activity, postemergence test; details: post; sprayed onto seedling plants, 800 g of active material per hectare; evaluated 2 weeks after treatment
Outline: as §1

Setaria viridis [12] = test: Herbicidal activity, postemergence test; details: post; sprayed onto seedling plants, 800 g of active material per hectare; evaluated 2 weeks after treatment
Outline: as §1

Ambrosia artemisifolia [13] = test: Herbicidal activity, postemergence test; details: post; sprayed onto seedling plants, 800 g of active material per hectare; evaluated 2 weeks after treatment
Outline: as §1

Helianthus annuus [14] = test: Herbicidal activity, postemergence test; details: post; sprayed onto seedling plants, 800 g of active material per hectare; evaluated 2 weeks after treatment
Outline: as §1

Hordeum vulgare [15] = test: Herbicidal activity, postemergence test; details: post; sprayed onto seedling plants, 800 g of active material per hectare; evaluated 2 weeks after treatment
Outline: as §1

Zea mays [16] = test: Herbicidal activity, postemergence test; details: post; sprayed onto seedling plants, 800 g of active material per hectare; evaluated 2 weeks after treatment
Outline: as §1

Viola arvensis [17] = test: Herbicidal activity, postemergence test; details: post; sprayed onto seedling plants, 800 g of active material per hectare; evaluated 2 weeks after treatment
Outline: as §1

Stellaria media [18] = test: Herbicidal activity, postemergence test; details: post; sprayed onto seedling plants, 800 g of active material per hectare; evaluated 2 weeks after treatment
Outline: as §1

Ipomoea hederacea [19] = test: Herbicidal activity, preemergence test; details: pre; sprayed onto soil, 800 g of active material per hectare; evaluated 3 weeks after treatment
Outline: as §1

Abutilon theophrasti [20] = test: Herbicidal activity, preemergence test; details: pre; sprayed onto soil, 800 g of active material per hectare; evaluated 3 weeks after treatment
Outline: as §1

Echinochloa crus-galli [21] = test: Herbicidal activity, preemergence test; details: pre; sprayed onto soil, 800 g of active material per hectare; evaluated 3 weeks after treatment
Outline: as §1

Veronica persica [22] = test: Herbicidal activity, preemergence test; details: pre; sprayed onto soil, 800 g of active material per hectare; evaluated 3 weeks after treatment
Outline: as §1

Glycine max [23] = test: Herbicidal activity, preemergence test; details: pre; sprayed onto soil, 800 g of active material per hectare; evaluated 3 weeks after treatment
Outline: as §1

Amaranthus retroflexus [24] = test: Herbicidal activity, preemergence test; details: pre; sprayed onto soil, 800 g of active material per hectare; evaluated 3 weeks after treatment
Outline: as §1

Triticum aestivum [25] = test: Herbicidal activity, preemergence test; details: pre; sprayed onto soil, 800 g of active material per hectare; evaluated 3 weeks after treatment
Outline: as §1

Lamium purpureum [26] = test: Herbicidal activity, preemergence test; details: pre; sprayed onto soil, 800 g of active material per hectare; evaluated 3 weeks after treatment
Outline: as §1

Alopecurus myosuroides [27] = test: Herbicidal activity, preemergence test; details: pre; sprayed onto soil, 800 g of active material per hectare; evaluated 3 weeks after treatment
Outline: as §1

Gossypium hirsutum [28] = test: Herbicidal activity, preemergence test; details: pre; sprayed onto soil, 800 g of active material per hectare; evaluated 3 weeks after treatment
Outline: as §1

Galium aparine [29] = test: Herbicidal activity, preemergence test; details: pre; sprayed onto soil, 800 g of active material per hectare; evaluated 3 weeks after treatment
Outline: as §1

Setaria viridis [30] = test: Herbicidal activity, preemergence test; details: pre; sprayed onto soil, 800 g of active material per hectare; evaluated 3 weeks after treatment
Outline: as §1

Ambrosia artemisifolia [31] = test: Herbicidal activity, preemergence test; details: pre; sprayed onto soil, 800 g of active material per hectare; evaluated 3 weeks after treatment
Outline: as §1

Helianthus annuus [32] = test: Herbicidal activity, preemergence test; details: pre; sprayed onto soil, 800 g of active material per hectare; evaluated 3 weeks after treatment
Outline: as §1

Hordeum vulgare [33] = test: Herbicidal activity, preemergence test; details: pre; sprayed onto soil, 800 g of active material per hectare; evaluated 3 weeks after treatment
Outline: as §1

Zea mays [34] = test: Herbicidal activity, preemergence test; details: pre; sprayed onto soil, 800 g of active material per hectare; evaluated 3 weeks after treatment
Outline: as §1

Viola arvensis [35] = test: Herbicidal activity, preemergence test; details: pre; sprayed onto soil, 800 g of active material per hectare; evaluated 3 weeks after treatment
Outline: as §1

Stellaria media [36] = test: Herbicidal activity, preemergence test; details: pre; sprayed onto soil, 800 g of active material per hectare; evaluated 3 weeks after treatment
Outline: as §1

CC(NC(=O)c1nnc(C(C)(C)C)o1)c1cccs1 (racemic) [Example 5]
9 (complete kill): VERPE control rating (0-9) (Veronica persica [4]) | GOSHI control rating (0-9) (Gossypium hirsutum [10]) | AMBEL control rating (0-9) (Ambrosia artemisifolia [13])
2 (slight effect): LAMPU control rating (0-9) (Lamium purpureum [26])
4 (injury): ECHCG control rating (0-9) (Echinochloa crus-galli [3]) | TRZAW control rating (0-9) (Triticum aestivum [7]) | HORVW control rating (0-9) (Hordeum vulgare [15]) | ZEAMX control rating (0-9) (Zea mays [16]) | ALOMY control rating (0-9) (Alopecurus myosuroides [27])
7 (good herbicidal effect): VIOAR control rating (0-9) (Viola arvensis [17]) | ABUTH control rating (0-9) (Abutilon theophrasti [20])
0 (no effect): IPOHE control rating (0-9) (Ipomoea hederacea [19]) | GLXMA control rating (0-9) (Glycine max [23]) | TRZAW control rating (0-9) (Triticum aestivum [25]) | GOSHI control rating (0-9) (Gossypium hirsutum [28]) | GALAP control rating (0-9) (Galium aparine [29]) | HELAN control rating (0-9) (Helianthus annuus [32]) | HORVW control rating (0-9) (Hordeum vulgare [33]) | ZEAMX control rating (0-9) (Zea mays [34])
8 (approaching complete kill): ABUTH control rating (0-9) (Abutilon theophrasti [2]) | GLXMA control rating (0-9) (Glycine max [5]) | HELAN control rating (0-9) (Helianthus annuus [14]) | STEME control rating (0-9) (Stellaria media [18]) | VERPE control rating (0-9) (Veronica persica [22]) | SETVI control rating (0-9) (Setaria viridis [30]) | STEME control rating (0-9) (Stellaria media [36])
1 (trace effect): LAMPU control rating (0-9) (Lamium purpureum [8]) | AMBEL control rating (0-9) (Ambrosia artemisifolia [31])
5 (definite injury): AMARE control rating (0-9) (Amaranthus retroflexus [6]) | GALAP control rating (0-9) (Galium aparine [11]) | AMARE control rating (0-9) (Amaranthus retroflexus [24])
3 (moderate effect): ALOMY control rating (0-9) (Alopecurus myosuroides [9])
6 (herbicidal effect): IPOHE control rating (0-9) (Ipomoea hederacea [1]) | SETVI control rating (0-9) (Setaria viridis [12]) | ECHCG control rating (0-9) (Echinochloa crus-galli [21]) | VIOAR control rating (0-9) (Viola arvensis [35])
